According to patent publication US11712434B2, “Compound having anti-cancer effect, and preparation method therefor and use thereof” (3D MEDICINES (BEIJING) CO., LTD., priority 2016, dated 2023):
One block for each compound: values may come before it.

Key:
Format in all cases: cell-based
[1] = system: AN3CA; assay: Cell proliferation assay (Alamar Blue); details: AN3CA tumor cell line, 6 days culture
How it was run: (§1)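 Six-day continuous exposure of log-phase cells to a 9-point compound series (3.16-fold steps from 100 or 30 μM). Residual viability was read by AlamarBlue fluorescence at 560/590 nm. IC50 came from four-parameter curve fitting.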

[2] = system: CCRF-CEM; assay: Cell proliferation assay (Alamar Blue); details: CCRF-CEM tumor cell line, 6 days culture
How it was run: as §1

[3] = system: DLD1; assay: Cell proliferation assay (Alamar Blue); details: DLD1 tumor cell line, 6 days culture
How it was run: as §1

[4] = system: DU145; assay: Cell proliferation assay (Alamar Blue); details: DU145 tumor cell line, 6 days culture
How it was run: as §1

[5] = system: HCCLM3; assay: Cell proliferation assay (Alamar Blue); details: HCCLM3 tumor cell line, 6 days culture
How it was run: as §1

[6] = system: HLE; assay: Cell proliferation assay (Alamar Blue); details: HLE liver cancer cell line, 6 days culture
How it was run: as §1

[7] = system: HT1080; assay: Cell proliferation assay (Alamar Blue); details: HT1080 tumor cell line, 6 days culture
How it was run: as §1

[8] = system: Hep3B2.1-7; assay: Cell proliferation assay (Alamar Blue); details: Hep3B2.1-7 liver cancer cell line, 6 days culture
How it was run: as §1

[9] = system: HuTu80; assay: Cell proliferation assay (Alamar Blue); details: HuTu80 tumor cell line, 6 days culture
How it was run: as §1

[10] = system: JHH4; assay: Cell proliferation assay (Alamar Blue); details: JHH4 liver cancer cell line, 6 days culture
How it was run: as §1

[11] = system: JHH5; assay: Cell proliferation assay (Alamar Blue); details: JHH5 liver cancer cell line, 6 days culture
How it was run: as §1

[12] = system: KM12; assay: Cell proliferation assay (Alamar Blue); details: KM12 tumor cell line, 6 days culture
How it was run: as §1

[13] = system: Li-7; assay: Cell proliferation assay (Alamar Blue); details: Li-7 liver cancer cell line, 6 days culture
How it was run: as §1

[14] = system: MDA-MB-231; assay: Cell proliferation assay (Alamar Blue); details: MDA-MB-231 tumor cell line, 6 days culture
How it was run: as §1

[15] = system: MDA-MB-435S; assay: Cell proliferation assay (Alamar Blue); details: MDA-MB-435S tumor cell line, 6 days culture
How it was run: as §1

[16] = system: NCI-H1648; assay: Cell proliferation assay (Alamar Blue); details: NCI-H1648 tumor cell line, 6 days culture
How it was run: as §1

[17] = system: NCI-H661; assay: Cell proliferation assay (Alamar Blue); details: NCI-H661 tumor cell line, 6 days culture
How it was run: as §1

[18] = system: SNU182; assay: Cell proliferation assay (Alamar Blue); details: SNU182 liver cancer cell line, 6 days culture
How it was run: as §1

[19] = system: SNU354; assay: Cell proliferation assay (Alamar Blue); details: SNU354 liver cancer cell line, 6 days culture
How it was run: as §1

[20] = system: SNU398; assay: Cell proliferation assay (Alamar Blue); details: SNU398 liver cancer cell line, 6 days culture
How it was run: as §1

[21] = system: SNU423; assay: Cell proliferation assay (Alamar Blue); details: SNU423 liver cancer cell line, 6 days culture
How it was run: as §1

[22] = system: SNU449; assay: Cell proliferation assay (Alamar Blue); details: SNU449 liver cancer cell line, 6 days culture
How it was run: as §1

[23] = system: SNU475; assay: Cell proliferation assay (Alamar Blue); details: SNU475 liver cancer cell line, 6 days culture
How it was run: as §1

[24] = system: SNU739; assay: Cell proliferation assay (Alamar Blue); details: SNU739 liver cancer cell line, 6 days culture
How it was run: as §1

[25] = system: TE-15; assay: Cell proliferation assay (Alamar Blue); details: TE-15 tumor cell line, 6 days culture
How it was run: as §1

[26] = system: TE-6; assay: Cell proliferation assay (Alamar Blue); details: TE-6 tumor cell line, 6 days culture
How it was run: as §1

[27] = system: 26 liver cancer cell lines; assay: Cell proliferation assay (Alamar Blue), liver cancer panel summary; details: almost all liver cancer cells
Experimental: 1. Instruments and Materials • Thermo 311 CO2 incubator; Haier biosafety cabinet; Molecular Devices microplate reader; Xiangyi brand L530 desktop low speed centrifuge; Olympus IX51 inverted fluorescence microscope, DMEM, RPMI 1640, MEM, DMEM/F12 1:1 medium, Fetal bovine serum, 0.25% trypsin solution, phosphate buffer (Thermo Fisher Shanghai Co., Ltd.); sigma dimethyl sulfoxide (DMSO), resazurin; 54 commercial tumor cell lines (including 26 liver cancer cell lines). Experimental drugs: compounds 1-12 and active drug Linifanib; chemotherapeutic drug Doxorubicin (HY-15142; Shanghai Qianyuan Biomedical Technology Co., Ltd.).
2. […] The proportion and quantity of passage were determined by experimental needs. The ratio of subculture of this cell line was generally 1:2^˜1:3. • 2.2 Inhibition Effect on the Proliferation of Different Tumor Cell Lines • Cell test: 54 cell lines in logarithmic growth phase were inoculated in 96-well culture plates at 500^˜1×10^4/well (the optimal seeding density of each cell line was determined in pre-experiment), After incubating at 37° C. for 4 h in a 5% CO2 humidification incubator, added 10 μL of compounds 1-12 or Linifanib to each well, and tested 9 drug concentration gradients for each compound (diluted from the highest concentration of the test by 3.16 times). […]

IC50 [2]: > 100 µM
IC50 [3]: > 100 µM
IC50 [4]: 83 µM
IC50 [5]: > 100 µM
IC50 [7]: > 100 µM
IC50 [8]: 79.6 µM
IC50 [14]: 79.5 µM
IC50 [15]: > 100 µM
IC50 [16]: > 100 µM
IC50 [17]: > 100 µM
IC50 [18]: > 100 µM
IC50 [19]: 97.3 µM
IC50 [20]: > 100 µM
IC50 [21]: > 100 µM
IC50 [22]: > 100 µM
IC50 [23]: > 100 µM
IC50 [24]: > 100 µM
SMILES: Cc1ccc(F)c(NC(=O)Nc2ccc(-c3cccc4[nH]nc(NC(=O)CCCCCCCCCCCNC(=O)C[C@H](N)C(=O)O)c34)cc2)c1 [Compound 12]
IC50 [1]: 3.84 µM
IC50 [6]: > 100 µM
IC50 [9]: 44.4 µM
IC50 [10]: > 100 µM
IC50 [11]: > 100 µM
IC50 [12]: 82.5 µM
IC50 [13]: 90.4 µM
IC50 [25]: > 100 µM
IC50 [26]: > 100 µM
response of liver cancer cells [27]: did not respond

IC50 ([2]; Homo sapiens, 144 h): 6.14 µM
IC50 ([3]; Homo sapiens, DLD-1, 144 h): 18.5 µM
IC50 ([4]; Homo sapiens, DU-145, 144 h): 4.25 µM
IC50 ([5]; Homo sapiens, 144 h): 8.24 µM
IC50 ([7]; Homo sapiens, HT-1080, 144 h): 10.4 µM
IC50 ([8]; 144 h): 3.29 µM
IC50 ([14]; Homo sapiens, 144 h): 7.61 µM
IC50 ([15]; Homo sapiens, 144 h): 10.5 µM
IC50 ([16]; Homo sapiens, 144 h): 10.1 µM
IC50 ([17]; Homo sapiens, 144 h): 20.2 µM
IC50 ([18]; Homo sapiens, SNU-182, 144 h): 30.9 µM
IC50 ([19]; Homo sapiens, SNU-354, 144 h): 3.59 µM
IC50 ([20]; Homo sapiens, SNU-398, 144 h): 1.75 µM
IC50 ([21]; Homo sapiens, SNU-423, 144 h): 25.4 µM
IC50 ([22]; Homo sapiens, SNU-449, 144 h): 16.5 µM
IC50 ([23]; Homo sapiens, SNU-475, 144 h): 4.81 µM
IC50 ([24]; SNU-739, 144 h): 7.63 µM
SMILES: Cc1ccc(F)c(NC(=O)Nc2ccc(-c3cccc4[nH]nc(NC(=O)C[C@H](N)C(=O)N[C@@H](CCC(=O)O)C(=O)O)c34)cc2)c1 [Compound 1]
IC50 ([1]; Homo sapiens, AN3-CA, 144 h): 0.34 µM
IC50 ([6]; Homo sapiens, 144 h): 2.84 µM
IC50 ([9]; Homo sapiens, 144 h): 1.98 µM
IC50 ([10]; JHH-4, 144 h): 25 µM
IC50 ([11]; 144 h): 16.6 µM
IC50 ([12]; Homo sapiens, 144 h): 3.71 µM
IC50 ([13]; 144 h): 7.29 µM
IC50 ([25]; Homo sapiens, 144 h): 2.94 µM
IC50 ([26]; Homo sapiens, 144 h): 10.5 µM

IC50 ([2]; Homo sapiens, 144 h): > 100 µM
IC50 ([3]; Homo sapiens, DLD-1, 144 h): > 100 µM
IC50 ([4]; Homo sapiens, DU-145, 144 h): > 100 µM
IC50 ([5]; Homo sapiens, 144 h): > 100 µM
IC50 ([7]; Homo sapiens, HT-1080, 144 h): > 100 µM
IC50 ([8]; 144 h): > 100 µM
IC50 ([14]; Homo sapiens, 144 h): > 100 µM
IC50 ([15]; Homo sapiens, 144 h): > 100 µM
IC50 ([16]; Homo sapiens, 144 h): > 100 µM
IC50 ([17]; Homo sapiens, 144 h): > 100 µM
IC50 ([18]; Homo sapiens, SNU-182, 144 h): > 100 µM
IC50 ([19]; Homo sapiens, SNU-354, 144 h): > 100 µM
IC50 ([20]; Homo sapiens, SNU-398, 144 h): > 100 µM
IC50 ([21]; Homo sapiens, SNU-423, 144 h): > 100 µM
IC50 ([22]; Homo sapiens, SNU-449, 144 h): > 100 µM
IC50 ([23]; Homo sapiens, SNU-475, 144 h): > 100 µM
IC50 ([24]; SNU-739, 144 h): > 100 µM
SMILES: Cc1ccc(F)c(NC(=O)Nc2ccc(-c3cccc4[nH]nc(NC(=O)CCCCCNC(=O)C[C@H](N)C(=O)N[C@@H](CCC(=O)N[C@@H](CCC(=O)N[C@@H](CCC(=O)N[C@@H](CCC(=O)O)C(=O)O)C(=O)O)C(=O)O)C(=O)O)c34)cc2)c1 [Compound 5]
IC50 ([1]; Homo sapiens, AN3-CA, 144 h): 41.4 µM
IC50 ([6]; Homo sapiens, 144 h): > 100 µM
IC50 ([9]; Homo sapiens, 144 h): > 100 µM
IC50 ([10]; JHH-4, 144 h): > 100 µM
IC50 ([11]; 144 h): > 100 µM
IC50 ([12]; Homo sapiens, 144 h): > 100 µM
IC50 ([13]; 144 h): > 100 µM
IC50 ([25]; Homo sapiens, 144 h): > 100 µM
IC50 ([26]; Homo sapiens, 144 h): > 100 µM
